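Assay format: 96-well plates, 48-hour exposure. GI50 is the concentration that inhibits growth by half. TGI denotes the concentration required for complete inhibition of growth.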
Legend:
Experiment in all cases: growth of human tumour cells (NCI), 48 h
[1] = tested on: NCI-H226 lung
[2] = tested on: MDA-MB-231 breast
[3] = tested on: SK-MEL-5 melanoma
[4] = tested on: SW-620 colon
[5] = tested on: K-562 leukemia
[6] = tested on: IGROV1 ovarian
[7] = tested on: CCRF-CEM leukemia
[8] = tested on: EKVX NSCLC
[9] = tested on: KM12 colon
[10] = tested on: TK-10 renal
[11] = tested on: UACC-62 melanoma
[12] = tested on: MOLT-4 leukemia
[13] = tested on: T-47D breast
[14] = tested on: M14 melanoma
[15] = tested on: HOP-92 NSCLC
[16] = tested on: NCI/ADR-RES ovarian

Compound | TGI [1] [µM] | TGI [2] [µM] | TGI [3] [µM] | TGI [4] [µM] | TGI [5] [µM] | TGI [6] [µM] | TGI [7] [µM] | TGI [8] [µM] | TGI [9] [µM] | TGI [10] [µM] | TGI [11] [µM] | TGI [12] [µM] | TGI [13] [µM] | TGI [14] [µM] | TGI [15] [µM] | TGI [16] [µM] | GI50 [1] [µM] | GI50 [2] [µM] | GI50 [6] [µM] | GI50 [11] [µM]
CC(=O)c1c(-c2ccc(Cl)cc2)c(-c2ccc(Cl)cc2)n[nH]c1=O | > 100 | 86.4 | > 100 | > 100 | > 100 | > 100 | > 100 | > 100 | > 100 | > 100 | 43.3 | > 100 | > 100 | > 100 | > 100 | > 100 | – | – | – | –
NC(CSS(=O)(=O)O)=NC1CC2CCC1C2 (stereo not drawn) | > 100 | > 100 | > 100 | > 100 | > 100 | > 100 | > 100 | – | > 100 | > 100 | > 100 | > 100 | > 100 | > 100 | > 100 | > 100 | – | – | – | –
C=C(C)C1CC=C(C)C(=O)C1 (stereo not drawn) | > 100 | > 100 | > 100 | > 100 | > 100 | > 100 | > 100 | > 100 | > 100 | > 100 | – | > 100 | > 100 | > 100 | > 100 | > 100 | – | – | – | –
CN1CCCC2C(c3ccccc3)C(C3=NCCCC3)C(c3ccccc3)CC21 (stereo not drawn) | > 100 | > 100 | 31.7 | > 100 | 37.6 | > 100 | > 100 | > 100 | > 100 | > 100 | 32.4 | > 100 | > 100 | 40.4 | > 100 | > 100 | – | – | – | –
CCC1CN2CCc3cc(OC)c(OC)cc3C2CC1CC1c2cc(OC)c(OC)cc2CCN1C(=O)C(N)Cc1ccccc1 (stereo not drawn) | – | – | 5.34 | 10.9 | 1.93 | – | 10.2 | 4.37 | 10.2 | 8.53 | 11.2 | 1.78 | – | 2.19 | 6.41 | – | – | – | – | –
CCN(CC)C(=O)c1cc(OC(C)C)ccc1-c1c(C)cc(OC(C)C)c(OC)c1OC | > 100 | – | > 100 | > 100 | > 100 | > 100 | > 100 | > 100 | > 100 | > 100 | > 100 | > 100 | – | > 100 | – | – | – | – | – | –
COc1ccccc1C[C@@H]1OC2(C=CC(=O)CC2SC(=O)c2ccccc2)O[C@H]1Cc1ccccc1OC (stereo partly drawn) | – | 7.23 | 3.1 | 1.35 | 27.3 | 2.74 | 1.03 | – | 8.4 | 5.07 | 7 | 19.5 | 5.64 | 3.26 | 3.31 | 4.55 | – | – | – | –
COc1cc2c(cc1C)NC(=O)/C2=C/c1cccnc1 | 24.3 | 27.5 | 25.3 | 53.1 | 40.2 | > 100 | > 56.8 | 47 | 29.1 | 31.1 | 25.9 | 24.1 | 8.13 | 37.5 | 41.9 | 42 | 10.9 | 9.27 | 19.5 | 10.1
O=c1[nH]c2cccc([N+](=O)[O-])c2c(=O)n1-c1ccc(Cl)cc1 | 30.1 | 34.3 | 24 | 27.1 | 34.9 | 40.1 | 47.1 | 28 | 34.4 | 39 | 23.1 | 43.2 | 26.8 | 29.2 | 47.9 | 43.6 | – | – | – | –
CC(=O)NC1C(OCc2ccccc2)OC(CO)C(O)C1OC(C)C(=O)NC(C(=O)NC(CCC(=O)NCCCC(=O)Nc1ccc2c(c1)CN1C(=O)c3ccccc3C1=N2)C(N)=O)C(C)C (stereo not drawn) | – | > 100 | > 100 | > 100 | > 100 | > 100 | > 100 | > 100 | > 100 | > 100 | > 100 | > 100 | > 100 | > 100 | > 100 | > 100 | – | – | – | –
[O-][n+]1nc(N2CCOCC2)nc2ccccc21 | > 100 | > 100 | – | > 100 | > 100 | > 100 | > 100 | > 100 | > 100 | > 100 | > 100 | > 100 | > 100 | > 100 | – | > 100 | – | – | – | –
NC(=O)NC1NC(=O)NC1=O (stereo not drawn) | > 100 | > 100 | > 100 | > 100 | > 100 | > 100 | > 100 | > 100 | > 100 | > 100 | > 100 | > 100 | > 100 | > 100 | > 100 | > 100 | – | – | – | –
COc1cc2c(/C=C3/C(=O)Nc4ccc(O)cc43)c(Cl)n(Cc3ccccc3)c2cc1C | 15.5 | 42 | 2.46 | 19.9 | > 100 | 16.8 | > 100 | > 100 | 1.35 | > 40.7 | > 41.9 | > 100 | > 74.8 | 11.8 | > 78.3 | 2.6 | – | – | – | –
CCC(C)C(=O)OC1C(=O)OC2CC3C(C)=CC(=O)C(O)C3(C)C3C4(O)OCC23C1C(C)C4O (stereo not drawn) | < 0.031 | 0.161 | 0.025 | 0.694 | – | 0.175 | 0.0393 | – | 0.133 | 0.845 | 0.188 | – | 0.158 | 0.0481 | 0.205 | 6.47 | – | – | – | –
CCOC(=O)/C=C/CC(C)(C)COC(C)=O | > 10 | > 10 | – | > 10 | > 10 | – | > 10 | – | > 10 | > 10 | > 10 | > 10 | > 10 | > 10 | – | > 10 | – | – | – | –
CC(=O)OC1C=C(C=O)C(O)(C=O)C2(C)CCCC(C)(C)C12 (stereo not drawn) | 4.62 | – | 2.2 | 0.953 | 1.73 | 6.05 | 0.706 | 6.13 | 5.14 | – | 6.1 | 0.629 | – | – | 2.98 | 5.57 | – | – | – | –
CC(C)=CCc1c(O)cc(O)c2c1OC(c1ccc(O)cc1)C(O)C2=O (stereo not drawn) | 56.7 | – | 41.4 | > 100 | > 100 | 88.9 | – | 56.3 | 58.9 | 60.6 | 46.8 | – | – | 57.3 | 39.7 | – | – | – | – | –
NCC(Cl)C(O)c1cnc(N)[nH]1 (stereo not drawn) | 17.6 | – | 47.6 | 3.89 | > 100 | 4.34 | > 83.6 | 8.53 | 2.96 | – | 63 | 2.65 | – | – | 91.4 | > 100 | – | – | – | –
Cc1[nH]c(=O)[nH]c(=O)c1/C=C/C(=O)NC(CO)CC(C)C (stereo not drawn) | > 375 | – | > 375 | > 375 | > 237 | > 375 | > 375 | > 375 | > 375 | – | > 375 | > 211 | – | – | > 343 | > 375 | – | – | – | –
N=C1C(=N)c2ccccc2-c2ccccc21.[Cl-].[Ru+2].c1cnc2c(c1)ccc1cccnc12.c1cnc2c(c1)ccc1cccnc12 | – | – | 34.4 | 41.4 | 78.9 | 72.6 | 74.7 | 93.5 | > 100 | > 100 | > 100 | 96.9 | – | 43.3 | 67.9 | – | – | – | – | –
COc1ccc(C2C(C(=O)O)=C(CO)Oc3cc4c(cc32)OCO4)cc1 (stereo not drawn) | – | – | > 100 | > 100 | – | > 100 | – | > 100 | – | > 100 | > 100 | – | – | > 100 | > 100 | – | – | – | – | –
